According to publication PMC4237514, “Novel amino-β-lactam derivatives as potent cholesterol absorption inhibitors” (European Journal of Medicinal Chemistry, 2014):

Tested on: MDCKII wildtype cells
Experiment: In vitro [3H]cholesterol uptake assay in MDCKII wildtype cells
Format: cell-based, Canine
Settings: Figure S3
Experimental: Medium A contained DMEM plus 100 units/mL penicillin and 100 μg/mL streptomycin supplemented with 5% lipoprotein-deficient serum (density > 1.21 g/mL, prepared from FCS by ultracentrifugation). Cholesterol Replenishing Medium (Medium B) was prepared according to the modified method reported by Field et al.. In brief, 0.25 mM oleic acid, 50 μM free cholesterol, 10 μM compactin, 50 μM mevalonate, 5 mM Na-taurocholate (Sigma–Aldrich, Germany), and [^3H]cholesterol (0.18 μCi/mL medium, [1,2–3H(N)] cholesterol, 1 mCi/mL (ARC Inc., USA)) in Medium A were mixed and sonicated. Following the micellar formation, compounds 1, 5, 6, 5/6 (70:30), and 6/5 (85:15) (73 mM stock solution in DMSO) were added to Medium B and vortexed to obtain the final concentrations (10, 30, 60, 90, 120, 150, 200 μM).
MDCKII wildtype and hNPC1L1/MDCKII cells were seeded in 24-well plates at a density of 5 × 10^5 cells/mL medium (500 μL medium/well) in Medium A 24 h before the treatment. […] Cells were lysed and radioactivity in the lysate (100 μL) was determined by liquid scintillation counting. Protein concentrations of the lysates were determined with the DC Protein Assay (Bio-Rad, USA). The results were calculated as cpm/mg protein and expressed as percentage of inhibition compared to untreated cells. […]

O=C1[C@H](CC[C@H](O)c2ccc(F)cc2)[C@@H](c2ccc(O)cc2)N1c1ccc(F)cc1 [Compound 1, ezetimibe, reference compound]
effect on cholesterol uptake: no effect
